Values quoted from earlier work, collected in US8980889B2, “Pyrazole derivative” (Mochida Pharmaceutical Co., Ltd., priority 2013, dated 2015).

Legend:
Conditions in all cases: U.S. Patent Application No. 2003/0032579
[1] = test system: rats
[2] = test system: rat brain
[3] = test system: rat

In the case of `COc1ccc(Cc2nccc3cc(OC)c(OC)cc23)cc1OC` [papaverine], the apomorphine-induced stereotypy [1] is given as “decreases”, the “dopamine level in the rat brain” value [2] is given as “decreases” and the haloperidol-induced catalepsy [3] is given as “increases”.
